Values joined by “and” are separate entries in the source; they are usually repeats but may differ in a detail not shown here. Identical values can stand only once. Inconclusive results and toxic doses are left out.
Tested on: P388 leukemia ip, CD2F1 mice, survival T/C
Assay: NCI In Vivo Anticancer Drug Screen. Data for tumor model P388 Leukemia (intraperitoneal) in CD2F1 (CDF1) mice
Conditions: endpoint: median survival time, higher = longer survival
Summary of the method: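 Mice carrying the transplanted tumor received test compound or vehicle. Survival was recorded in each group, and the value is the treated-group measurement divided by that of the vehicle-treated control group.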

[1] = dose: 25.0 mg/kg/injection, schedule: Q01DX009 (ip), vehicle: saline with Tween-80
[2] = dose: 50.0 mg/kg/injection, schedule: Q01DX009 (ip), vehicle: saline with Tween-80
[3] = dose: 100.0 mg/kg/injection, schedule: Q01DX009 (ip), vehicle: saline with Tween-80
[4] = dose: 100.0 mg/kg/injection, schedule: Q01DX009 (ip), vehicle: saline
[5] = dose: 12.5 mg/kg/injection, schedule: Q01DX005 (ip), vehicle: saline with Tween-80
[6] = dose: 50.0 mg/kg/injection, schedule: Q01DX005 (ip), vehicle: saline with Tween-80
[7] = dose: 100.0 mg/kg/injection, schedule: Q01DX005 (ip), vehicle: saline with Tween-80
[8] = dose: 200.0 mg/kg/injection, schedule: Q01DX005 (ip), vehicle: saline with Tween-80
[9] = dose: 60.0 mg/kg/injection, schedule: Q01DX005 (ip), vehicle: saline with Tween-80
[10] = dose: 120.0 mg/kg/injection, schedule: Q01DX005 (ip), vehicle: saline with Tween-80
[11] = dose: 50.0 mg/kg/injection, schedule: Q01DX009 (ip), vehicle: Klucel (hydroxypropylcellulose) (HPC)
[12] = dose: 100.0 mg/kg/injection, schedule: Q01DX009 (ip), vehicle: Klucel (hydroxypropylcellulose) (HPC)
[13] = dose: 200.0 mg/kg/injection, schedule: Q01DX009 (ip), vehicle: Klucel (hydroxypropylcellulose) (HPC)
[14] = dose: 100.0 mg/kg/injection, schedule: Q04DX003 (ip), vehicle: saline with Tween-80
[15] = dose: 200.0 mg/kg/injection, schedule: Q04DX003 (ip), vehicle: saline with Tween-80
[16] = dose: 400.0 mg/kg/injection, schedule: Q04DX003 (ip), vehicle: saline with Tween-80
[17] = dose: 25.0 mg/kg/injection, schedule: Q01DX009 (ip), vehicle: Klucel (hydroxypropylcellulose) (HPC)

For C(=N\N1CCCCCC1)/c1ccc2c(c1)OCO2, the T/C [1] was 90 % of control, the T/C [2] was 95 % of control and the T/C [3] was 90 % of control.

CC(Br)C(=O)NC(Cc1ccccc1)C(=O)O (stereo unspecified) was tested, and the T/C [4] was 99 % of control, the T/C (dose: 200.0 mg/kg/injection, schedule: Q01DX009 (ip), vehicle: saline) was 103 % of control and the T/C (dose: 400.0 mg/kg/injection, schedule: Q01DX009 (ip), vehicle: saline) was 89 % of control.

With CN(C)CCCOc1nc2c(c(=O)n(C)c(=O)n2C)n1C (tested in a mixture with another compound) the T/C (dose: 6.25 mg/kg/injection, schedule: Q01DX005 (ip), vehicle: Klucel (hydroxypropylcellulose) (HPC)) was 100 % of control, the T/C (dose: 12.5 mg/kg/injection, schedule: Q01DX005 (ip), vehicle: Klucel (hydroxypropylcellulose) (HPC)) was 106 % of control and the T/C (dose: 25.0 mg/kg/injection, schedule: Q01DX005 (ip), vehicle: Klucel (hydroxypropylcellulose) (HPC)) was 110 % of control.

For CCc1cccc(CC)c1N1CC(C(=O)O)CC1=O (stereo unspecified), the T/C (dose: 60.0 mg/kg/injection, schedule: Q01DX005 (ip), vehicle: Klucel (hydroxypropylcellulose) (HPC)) was 107 % of control, the T/C (dose: 120.0 mg/kg/injection, schedule: Q01DX005 (ip), vehicle: Klucel (hydroxypropylcellulose) (HPC)) was 101 % of control and the T/C (dose: 240.0 mg/kg/injection, schedule: Q01DX005 (ip), vehicle: Klucel (hydroxypropylcellulose) (HPC)) was 101 % of control.

For CN(C)[C@@H]1C(=O)C(C(N)=O)=C(O)[C@@]2(O)C(=O)C3=C(O)c4c(O)ccc(Cl)c4[C@@](C)(O)[C@H]3C[C@@H]12.[Cl][Sb]([Cl])[Cl], the T/C [5] was 108 % of control, the T/C [6] was 116 % of control and 120 % of control and the T/C [7] was 104 % of control.

For COC(=O)CCc1onc(Br)c1CCl, the T/C [2] was 110 % of control, the T/C [3] was 115 % of control and the T/C (dose: 200.0 mg/kg/injection, schedule: Q01DX009 (ip), vehicle: saline with Tween-80) was 119 % of control.

With O=C1c2cscc2C(=O)c2c(Cl)sc(Cl)c21 the T/C [1] was 95 % of control.

With CC(=O)OC/C=C(C)/C=C/C=C(C)/C=C/C1=C(C)CCCC1(C)C the T/C [8] was 95 % of control, the T/C (dose: 400.0 mg/kg/injection, schedule: Q01DX005 (ip), vehicle: saline with Tween-80) was 97 % of control and the T/C (dose: 800.0 mg/kg/injection, schedule: Q01DX005 (ip), vehicle: saline with Tween-80) was 97 % of control. For the same molecule, the T/C (dose: 1600.0 mg/kg/injection, schedule: Q01DX005 (ip), vehicle: saline with Tween-80) was 101 % of control.

In the case of CC1=C(C(=O)CC(=O)C(=O)Nc2ccc(C)cc2C)Sc2ccccc2N1, the T/C [9] is reported as 104 % of control, the T/C [10] is reported as 101 % of control and the T/C (dose: 240.0 mg/kg/injection, schedule: Q01DX005 (ip), vehicle: saline with Tween-80) is reported as 94 % of control.

In the case of Cc1cc(C(=O)O)sn1, the T/C (dose: 3.12 mg/kg/injection, schedule: Q01DX009 (ip), vehicle: saline) is reported as 100 % of control, the T/C (dose: 6.25 mg/kg/injection, schedule: Q01DX009 (ip), vehicle: saline) is reported as 100 % of control and the T/C (dose: 12.5 mg/kg/injection, schedule: Q01DX009 (ip), vehicle: saline) is reported as 96 % of control. The T/C (dose: 25.0 mg/kg/injection, schedule: Q01DX009 (ip), vehicle: saline) was 100 % of control.

N#C/C(=C\c1c(Cl)cccc1Cl)c1nc2ccccc2[nH]1 was tested, and the T/C [11] was 115 % of control, the T/C [12] was 103 % of control and the T/C [13] was 112 % of control.

For CSc1cccc(N=C(N)N)c1, the T/C (dose: 50.0 mg/kg/injection, schedule: Q01DX009 (ip), vehicle: saline) was 100 % of control and the T/C [4] was 98 % of control.

In the case of CC(SC(C)C(=O)O)C(=O)O (stereo unspecified), the T/C (dose: 100.0 mg/kg/injection, schedule: Q04DX002 (ip), vehicle: saline) is reported as 97 % of control and the T/C (dose: 200.0 mg/kg/injection, schedule: Q04DX002 (ip), vehicle: saline) is reported as 109 % of control.

For Cc1cc2cc3n(c2nn1)N=C(Cl)CC3, the T/C [9] was 86 % of control and the T/C [10] was 101 % of control.

For CCN=Cc1c(O)c(O)c(C(C)C)c2cc(C)c(-c3c(C)cc4c(C(C)C)c(O)c(O)c(C=NCC)c4c3O)c(O)c12, the T/C [6] was 86 % of control, the T/C [7] was 86 % of control and the T/C [8] was 104 % of control.

In the case of O=S(=O)(NCCSSCCNS(=O)(=O)c1cccc2cccnc12)c1cccc2cccnc12, the T/C [11] is reported as 100 % of control, the T/C [12] is reported as 89 % of control and the T/C [13] is reported as 91 % of control.

With Cc1cn(C)c2c1-c1c(cnn1-c1ccccc1)CC2 the T/C (dose: 100.0 mg/kg/injection, schedule: Q04DX003 (ip), vehicle: Klucel (hydroxypropylcellulose) (HPC)) was 100 % of control, the T/C (dose: 200.0 mg/kg/injection, schedule: Q04DX003 (ip), vehicle: Klucel (hydroxypropylcellulose) (HPC)) was 102 % of control and the T/C (dose: 400.0 mg/kg/injection, schedule: Q04DX003 (ip), vehicle: Klucel (hydroxypropylcellulose) (HPC)) was 93 % of control.

In the case of OCCN1CCN(c2c3ccccc3nc3ccccc23)CC1, the T/C (dose: 25.0 mg/kg/injection, schedule: Q04DX003 (ip), vehicle: saline) is reported as 100 % of control and the T/C (dose: 50.0 mg/kg/injection, schedule: Q04DX003 (ip), vehicle: saline) is reported as 100 % of control.

For O=[N+]([O-])c1ccc(S(=O)(=O)O)cc1 (tested in a mixture with another compound), the T/C [14] was 98 % of control, the T/C [15] was 101 % of control and the T/C [16] was 86 % of control.

With CC(C)(C)N=C(CCN1CCN(CCC(=NC(C)(C)C)Nc2ccc(Cl)cc2)CC1)Nc1ccc(Cl)cc1 the T/C [11] was 87 % of control, the T/C [12] was 93 % of control and the T/C [13] was 96 % of control.

CN1C(=O)c2ccc3c4ccc5c6c(ccc(c7ccc(c2c37)C1=O)c64)C(=O)OC5=O was tested, and the T/C (dose: 50.0 mg/kg/injection, schedule: Q01DX005 (ip), vehicle: Klucel (hydroxypropylcellulose) (HPC)) was 101 % of control, the T/C (dose: 100.0 mg/kg/injection, schedule: Q01DX005 (ip), vehicle: Klucel (hydroxypropylcellulose) (HPC)) was 101 % of control and the T/C (dose: 200.0 mg/kg/injection, schedule: Q01DX005 (ip), vehicle: Klucel (hydroxypropylcellulose) (HPC)) was 103 % of control.

In the case of CN1C(=O)C2C(N(C3OC(CO)C(O)C3O)C1=O)C2(Cl)Cl (stereo unspecified), the T/C (dose: 75.0 mg/kg/injection, schedule: Q04DX003 (ip), vehicle: saline) is reported as 100 % of control, the T/C (dose: 100.0 mg/kg/injection, schedule: Q04DX003 (ip), vehicle: saline) is reported as 100 % of control and the T/C (dose: 150.0 mg/kg/injection, schedule: Q04DX003 (ip), vehicle: saline) is reported as 99 % of control. The T/C (dose: 200.0 mg/kg/injection, schedule: Q04DX003 (ip), vehicle: saline) was 99 % of control, the T/C (dose: 300.0 mg/kg/injection, schedule: Q04DX003 (ip), vehicle: saline) was 102 % of control and the T/C (dose: 400.0 mg/kg/injection, schedule: Q04DX003 (ip), vehicle: saline) was 99 % of control.

For S=C(N/N=C/c1ccccn1)SCc1ccccc1, the T/C [11] was 101 % of control, the T/C [12] was 104 % of control and the T/C [13] was 100 % of control.

For COc1ccc(OC)c2c(Cl)ccnc12, the T/C [5] was 99 % of control, the T/C (dose: 25.0 mg/kg/injection, schedule: Q01DX005 (ip), vehicle: saline with Tween-80) was 103 % of control and the T/C [6] was 97 % of control.

In the case of Cc1ccc(C)c(NC(=O)Nc2nccs2)c1, the T/C [17] is reported as 99 % of control, the T/C [11] is reported as 90 % of control and the T/C [13] is reported as 91 % of control.

In the case of CCN(CC)CCOc1ccc(/C=C(\C)C(C)=O)cc1, the T/C (dose: 50.0 mg/kg/injection, schedule: Q01DX005 (ip), vehicle: saline) is reported as 94 % of control and the T/C (dose: 100.0 mg/kg/injection, schedule: Q01DX005 (ip), vehicle: saline) is reported as 90 % of control.

In the case of CN(CCN(C)C(=S)SCc1ccccc1)C(=S)SCc1ccccc1, the T/C (dose: 6.25 mg/kg/injection, schedule: Q01DX009 (ip), vehicle: Klucel (hydroxypropylcellulose) (HPC)) is reported as 100 % of control, the T/C (dose: 12.5 mg/kg/injection, schedule: Q01DX009 (ip), vehicle: Klucel (hydroxypropylcellulose) (HPC)) is reported as 116 % of control and the T/C [17] is reported as 105 % of control.

For CC1CCC(C(C)C)C(N)C1 (stereo unspecified), the T/C (dose: 25.0 mg/kg/injection, schedule: Q04DX002 (ip), vehicle: suspension in saline) was 100 % of control, the T/C (dose: 50.0 mg/kg/injection, schedule: Q04DX002 (ip), vehicle: suspension in saline) was 93 % of control and the T/C (dose: 100.0 mg/kg/injection, schedule: Q04DX002 (ip), vehicle: saline with Tween-80) was 89 % of control. For the same molecule, the T/C (dose: 100.0 mg/kg/injection, schedule: Q04DX002 (ip), vehicle: suspension in saline) was 102 % of control.

In the case of C1=C(c2ccccc2)N=C(c2nncc3ccccc23)C1(c1ccccc1)c1ccccc1, the T/C [14] is reported as 101 % of control, the T/C [15] is reported as 101 % of control and the T/C [16] is reported as 96 % of control.

Reference: PubChem BioAssay AID330 (DTP/NCI, 2004)
